In brackets after ≈: the same amount, converted by molar mass. Activity calls are given as the source filed them. The calls are words filed in the database; no cut-off is given here.
How the values were obtained:
Enterococcus faecalis = assay: Antimicrobial activity against Enterococcus faecalis 1528 R10 at 50 ug after 24 hrs by paper disk method; assay type: functional; conditions: 1528 R10, 24 h, read-out: IZ
[1] = Antitumor activity against human MAXF 401NL by modified propidium iodide assay; assay type: functional
[2] = Antitumor activity against human LXFL 529L by modified propidium iodide assay; assay type: functional
Mycolicibacterium vaccae = assay: Antimicrobial activity against Mycobacterium vaccae IMET 10670 at 50 ug after 24 hrs by paper disk method; assay type: functional; conditions: IMET 10670, 24 h, read-out: IZ
[3] = Antitumor activity against human RXF 486L by modified propidium iodide assay; assay type: functional
[4] = test system: Sporobolomyces salmonicolor; assay: Antimicrobial activity against Sporobolomyces salmonicolor SBUG 549 at 50 ug after 24 hrs by paper disk method; assay type: functional, organism-based
[5] = Antitumor activity against human OVXF 899L by modified propidium iodide assay; assay type: functional
CWR22R = assay: Antitumor activity against human 22Rv1 by modified propidium iodide assay; assay type: functional, cell-based
[6] = Antitumor activity against human LXFA 629L by modified propidium iodide assay; assay type: functional
[7] = Antitumor activity against human UXF 1138L by modified propidium iodide assay; assay type: functional
Candida albicans = assay: Antimicrobial activity against Candida albicans at 50 ug after 24 hrs by paper disk method; assay type: functional, organism-based
Bacillus subtilis = assay: Antimicrobial activity against Bacillus subtilis ATCC 6633 at 50 ug after 24 hrs by paper disk method; assay type: functional; conditions: ATCC 6633, 24 h, read-out: IZ
Escherichia coli = assay: Antimicrobial activity against Escherichia coli SG458 at 50 ug after 24 hrs by paper disk method; assay type: functional, organism-based
HT-29 = assay: Antitumor activity against human HT-29 by modified propidium iodide assay; assay type: functional, cell-based
[8] = Antitumor activity against human PXF 1752L by modified propidium iodide assay; assay type: functional
Pseudomonas aeruginosa [9] = assay: Antimicrobial activity against Pseudomonas aeruginosa SG137/B7 at 50 ug after 24 hrs by paper disk method; assay type: functional, organism-based
[10] = Antitumor activity against human PAXF 1657L by modified propidium iodide assay; assay type: functional
[11] = Antitumor activity against human MEXF 462NL by modified propidium iodide assay; assay type: functional
Staphylococcus aureus [12] = assay: Antimicrobial activity against Staphylococcus aureus 134/94 R9 at 50 ug after 24 hrs by paper disk method; assay type: functional; conditions: 134/94 R9, 24 h, read-out: IZ
Penicillium chrysogenum = assay: Antimicrobial activity against Penicillium notatum JP36 at 50 ug after 24 hrs by paper disk method; assay type: functional, organism-based
Pseudomonas aeruginosa [13] = assay: Antimicrobial activity against Pseudomonas aeruginosa K799/61 at 50 ug after 24 hrs by paper disk method; assay type: functional; conditions: K799/61, 24 h, read-out: IZ
[14] = Antitumor activity against human GXF251L by modified propidium iodide assay; assay type: functional
Staphylococcus aureus [15] = assay: Antimicrobial activity against Staphylococcus aureus SG 511 at 50 ug after 24 hrs by paper disk method; assay type: functional; conditions: SG 511, 24 h, read-out: IZ
HeLa = assay: Antiproliferative activity against human HeLa cells; assay type: functional
K562 = assay: Antiproliferative activity against human K562 cells; assay type: functional
[16] = test system: Human immunodeficiency virus 1; assay: Inhibition of HIV1 NL4-3 replication in CD4-CXCR4 expressing human TZM-bl cells assessed as decrease in p24 antigen production; assay type: functional, organism-based
[17] = test system: Human immunodeficiency virus 1; assay: Inhibition of HIV1 NL4-3 replication in CD4-CCR5 expressing human TZM-bl cells assessed as decrease in p24 antigen production; assay type: functional, organism-based
L929 = assay: Antiproliferative activity against mouse L929 cells; assay type: functional

| IC50 [1] [µM] | IC50 [2] [µM] | IC50 [3] [µM] | IC50 [5] [µM] | IC50 (CWR22R) [µM] | IC50 [6] [µM] | IC50 [7] [µM] | IC50 (HT-29) [µM] | IC50 [8] [µM] | IC50 [10] [µM] | IC50 [11] [µM] | Structure (SMILES) | zone of inhibition at 50 µg/disc (Enterococcus faecalis) [mm] | zone of inhibition at 50 µg/disc (Mycolicibacterium vaccae) [mm] | Activity [4] | Activity (Candida albicans) | zone of inhibition at 50 µg/disc (Bacillus subtilis) [mm] | Activity (Escherichia coli) | Activity (Pseudomonas aeruginosa [9]) | zone of inhibition at 50 µg/disc (Staphylococcus aureus [12]) [mm] | Activity (Penicillium chrysogenum) | other results |
| --- | --- | --- | --- | --- | --- | --- | --- | --- | --- | --- | --- | --- | --- | --- | --- | --- | --- | --- | --- | --- | --- |
| 10.8 | 10 | 11.1 | 11.7 | 9.87 | 8.52 | 8.54 | 9.97 | 12.8 | 12.4 | 9.62 | COC(=O)[C@]1(C)[C@@H](O)CC[C@]2(C)c3cc4c(cc3CC[C@@H]12)[nH]c1ccccc14 | 12 | 14 | inactive | inactive | 13.5 | inactive | inactive | 14 | Active | zone of inhibition at 50 µg/disc (Pseudomonas aeruginosa [13]): 15 mm; IC50 [14]: 7.63 µM; zone of inhibition at 50 µg/disc (Staphylococcus aureus [15]): 15 mm |
| > 30 | > 30 | > 30 | > 30 | > 30 | > 30 | > 30 | > 30 | > 30 | > 30 | > 30 | C[C@@]1(C(=O)O)[C@@H](O)CC[C@]2(C)c3cc4c(cc3CC[C@@H]12)[nH]c1ccccc14 [XIAMYCIN] | 12 | 14 | inactive | inactive | 13.5 | inactive | inactive | 14 | Active | CC50 (HeLa): 44.3 µg/mL (≈ 122 µM); GI50 (K562): 36.7 µg/mL (≈ 101 µM); inhibition [16]: Active; inhibition [17]: Active; GI50 (L929): 49.8 µg/mL (≈ 137 µM); zone of inhibition at 50 µg/disc (Pseudomonas aeruginosa [13]): 15 mm; IC50 [14]: 30 µM; zone of inhibition at 50 µg/disc (Staphylococcus aureus [15]): 15 mm |

From ChEMBL document CHEMBL1268922, “Xiamycin, a pentacyclic indolosesquiterpene with selective anti-HIV activity from a bacterial mangrove endophyte” (Bioorg Med Chem Lett, 2010)
